Tests used:
[1] = tested on: barnyardgrass; assay: Test A postemergence; assay type: in vivo, Echinochloa crus-galli; conditions: Postemergence
Procedure, shortened: (§1)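 Greenhouse test in loam soil/sand blend; compounds formulated in non-phytotoxic solvent with surfactant, applied as preemergence directed soil spray or postemergence to plants 2–10 cm tall at one- to two-leaf stage. Injury rated visually versus untreated controls after approximately 10 days on a 0 (no effect) to 100 (complete control) scale.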

[2] = tested on: morningglory; assay: Test A preemergence; assay type: in vivo, Ipomoea spp.; conditions: 0 to 100 scale
Procedure, shortened: as §1

[3] = tested on: crabgrass, large; assay: Test A preemergence; assay type: in vivo, Digitaria sanguinalis; conditions: 0 to 100 scale
Procedure, shortened: as §1

[4] = tested on: foxtail, giant; assay: Test A preemergence; assay type: in vivo, Setaria faberii; conditions: 0 to 100 scale
Procedure, shortened: as §1

[5] = tested on: corn; assay: Test A preemergence; assay type: in vivo, Zea mays; conditions: 0 to 100 scale
Procedure, shortened: as §1

[6] = tested on: wheat; assay: Test A postemergence; assay type: in vivo, Triticum aestivum
Procedure, shortened: as §1

[7] = tested on: wheat; assay: Test A preemergence; assay type: in vivo, Triticum aestivum
Procedure, shortened: as §1

[8] = tested on: foxtail, giant; assay: Test A postemergence; assay type: in vivo, Setaria faberii
Procedure, shortened: as §1

[9] = tested on: velvetleaf; assay: Test A preemergence; assay type: in vivo, Abutilon theophrasti; conditions: 0 to 100 scale
Procedure, shortened: as §1

[10] = tested on: velvetleaf; assay: Test A postemergence; assay type: in vivo, Abutilon theophrasti
Procedure, shortened: as §1

[11] = tested on: pigweed; assay: Test A postemergence; assay type: in vivo, Amaranthus retroflexus
Procedure, shortened: as §1

[12] = tested on: pigweed; assay: Test A preemergence; assay type: in vivo, Amaranthus retroflexus; conditions: 0 to 100 scale
Procedure, shortened: as §1

[13] = tested on: barnyardgrass; assay: Test A preemergence; assay type: in vivo, Echinochloa crus-galli; conditions: 0 to 100 scale
Procedure, shortened: as §1

[14] = tested on: corn; assay: Test A postemergence; assay type: in vivo, Zea mays
Procedure, shortened: as §1

[15] = tested on: crabgrass, large; assay: Test A postemergence; assay type: in vivo, Digitaria sanguinalis
Procedure, shortened: as §1

[16] = tested on: morningglory; assay: Test A postemergence; assay type: in vivo, Ipomoea spp.
Procedure, shortened: as §1

[17] = tested on: sedge, umbrella; assay: Test B flood; assay type: in vivo, Cyperus difformis; conditions: 250 g ai/ha, visual rating on 0 to 100 scale (0 no effect, 100 complete control), 13 to 15 days
Experimental: (§2) Seeds selected from rice (Oryza sativa), sedge, umbrella (small-flower umbrella sedge Cyperus difformis), ducksalad (Heteranthera limosa), and barnyardgrass (Echinochloa crus-galli) were grown to the 2-leaf stage for testing. At time of treatment, test pots were flooded to 3 cm above the soil surface, treated by application of test compounds directly to the paddy water, and then maintained at that water depth for the duration of the test.
(§3) Treated plants and controls were maintained in a greenhouse for 13 to 15 days, after which time all species were compared to controls and visually evaluated. Plant response ratings, summarized in Table B, are based on a scale of 0 to 100 where 0 is no effect and 100 is complete control. A dash (-) response means no test result.

[18] = tested on: rice; assay: Test B flood; assay type: in vivo, Oryza sativa; conditions: 250 g ai/ha, visual rating on 0 to 100 scale (0 no effect, 100 complete control), 13 to 15 days
Experimental: as §2, §3

[19] = tested on: ducksalad; assay: Test B flood; assay type: in vivo, Heteranthera limosa; conditions: 250 g ai/ha, visual rating on 0 to 100 scale (0 no effect, 100 complete control), 13 to 15 days
Experimental: as §2, §3

[20] = tested on: barnyardgrass; assay: Test B flood; assay type: in vivo, Echinochloa crus-galli; conditions: 250 g ai/ha, visual rating on 0 to 100 scale (0 no effect, 100 complete control), 13 to 15 days
Experimental: as §2, §3

[21] = 1000 g ai/ha, visual rating after approx. 10 days, 0 to 100 scale (0 no effect, 100 complete control)
[22] = Preemergence, 1000 g ai/ha, 0 no effect, 100 complete control
[23] = Postemergence, 1000 g ai/ha, visual rating after approx. 10 days, 0 to 100 scale (0 no effect, 100 complete control)
[24] = Preemergence, 1000 g ai/ha, 0 to 100 scale, 0 no effect, 100 complete control
[25] = preemergence, 500 g ai/ha, visual injury after approx. 10 days, 0 to 100 scale (0 no effect, 100 complete control)
[26] = Preemergence, 500 g ai/ha, 0 no effect, 100 complete control
[27] = preemergence, 125 g ai/ha, visual injury, approx. 10 days
[28] = Postemergence, 500 g ai/ha, visual rating after approx. 10 days, 0 to 100 scale (0 no effect, 100 complete control)
[29] = postemergence, 125 g ai/ha, about 10 days, visual rating on 0 to 100 scale (0 no effect, 100 complete control)

## CCc1cc(C(=O)NC)nn1Cc1cccc(OC(F)(F)F)c1 [Compound 65]
[1]; [21]
  Barnyardgrass plant response rating: 50
[2]; [22]
  Morningglory plant response rating: 70
[3]; [22]
  Crabgrass, Large plant response rating: 80
[4]; [22]
  Foxtail, Giant plant response rating: 70
[5]; [22]
  Corn plant response rating: 0
[6]; [23]
  Wheat plant response rating: 20
[7]; [24]
  Wheat plant response rating: 0
[7]; [25]
  Wheat plant response rating: 0
[8]; [23]
  Foxtail, Giant plant response rating: 50
[9]; [22]
  Velvetleaf plant response rating: 20
[10]; [23]
  Velvetleaf plant response rating: 30
[11]; [23]
  Pigweed plant response rating: 70
[12]; [22]
  Pigweed plant response rating: 90
[13]; [22]
  Barnyardgrass plant response rating: 60
[14]; [23]
  Corn plant response rating: 30
[15]; [23]
  Crabgrass, Large plant response rating: 50
[16]; [23]
  Morningglory plant response rating: 90

## CCc1cc(C(=O)N(C)OC)nn1Cc1cccc(OC(F)(F)F)c1 [Compound 67]
[1]; [21]
  Barnyardgrass plant response rating: 20
[2]; [22]
  Morningglory plant response rating: 0
[3]; [22]
  Crabgrass, Large plant response rating: 50
[4]; [22]
  Foxtail, Giant plant response rating: 90
[5]; [22]
  Corn plant response rating: 0
[6]; [23]
  Wheat plant response rating: 20
[7]; [24]
  Wheat plant response rating: 0
[7]; [25]
  Wheat plant response rating: 0
[8]; [23]
  Foxtail, Giant plant response rating: 40
[9]; [22]
  Velvetleaf plant response rating: 10
[10]; [23]
  Velvetleaf plant response rating: 30
[11]; [23]
  Pigweed plant response rating: 40
[12]; [22]
  Pigweed plant response rating: 0
[13]; [22]
  Barnyardgrass plant response rating: 0
[14]; [23]
  Corn plant response rating: 30
[15]; [23]
  Crabgrass, Large plant response rating: 30
[16]; [23]
  Morningglory plant response rating: 40

## CCc1cc(C(=O)N(C)CC)nn1Cc1cccc(OC(F)(F)F)c1 [Compound 68]
[1]; [21]
  Barnyardgrass plant response rating: 30
[2]; [22]
  Morningglory plant response rating: 0
[3]; [22]
  Crabgrass, Large plant response rating: 40
[4]; [22]
  Foxtail, Giant plant response rating: 60
[5]; [22]
  Corn plant response rating: 0
[6]; [23]
  Wheat plant response rating: 20
[7]; [24]
  Wheat plant response rating: 0
[7]; [25]
  Wheat plant response rating: 0
[8]; [23]
  Foxtail, Giant plant response rating: 20
[9]; [22]
  Velvetleaf plant response rating: 0
[10]; [23]
  Velvetleaf plant response rating: 40
[11]; [23]
  Pigweed plant response rating: 60
[12]; [22]
  Pigweed plant response rating: 70
[13]; [22]
  Barnyardgrass plant response rating: 0
[14]; [23]
  Corn plant response rating: 30
[15]; [23]
  Crabgrass, Large plant response rating: 30
[16]; [23]
  Morningglory plant response rating: 100

## CCCNC(=O)c1cc(C)n(Oc2ccnc(C(F)(F)F)c2)n1 [Compound 80]
[1]; 125 g ai/ha, 0 to 100 scale, 0 no effect, 100 complete control
  Barnyardgrass plant response rating: 10
[1]; 500 g ai/ha, visual rating after approx. 10 days, 0 to 100 scale (0 no effect, 100 complete control)
  Barnyardgrass plant response rating: 40
[2]; [26]
  Morningglory plant response rating: 60
[2]; [27]
  Morningglory plant response rating: 20
[3]; [26]
  Crabgrass, Large plant response rating: 100
[3]; [27]
  Crabgrass, Large plant response rating: 50
[4]; [26]
  Foxtail, Giant plant response rating: 90
[4]; [27]
  Foxtail, Giant plant response rating: 40
[5]; [26]
  Corn plant response rating: 0
[5]; [27]
  Corn plant response rating: 0
[6]; [28]
  Wheat plant response rating: 10
[6]; [29]
  Wheat plant response rating: 0
[7]; preemergence, 125 g ai/ha, visual injury, 0 to 100 scale, approx. 10 days
  Wheat plant response rating: 0
[7]; [25]
  Wheat plant response rating: 10
[8]; [28]
  Foxtail, Giant plant response rating: 30
[8]; [29]
  Foxtail, Giant plant response rating: 10
[17]
  Plant response rating, Sedge, Umbrella: 0
[18]
  Plant response rating, Rice: 0
[19]
  Plant response rating, Ducksalad: 0
[9]; [26]
  Velvetleaf plant response rating: 50
[9]; [27]
  Velvetleaf plant response rating: 0
[10]; [28]
  Velvetleaf plant response rating: 50
[10]; [29]
  Velvetleaf plant response rating: 10
[20]
  Plant response rating, Barnyardgrass: 0
[11]; [28]
  Pigweed plant response rating: 60
[11]; [29]
  Pigweed plant response rating: 40
[12]; [26]
  Pigweed plant response rating: 100
[12]; [27]
  Pigweed plant response rating: 60
[13]; [26]
  Barnyardgrass plant response rating: 80
[13]; [27]
  Barnyardgrass plant response rating: 10
[14]; [28]
  Corn plant response rating: 30
[14]; [29]
  Corn plant response rating: 10
[15]; [28]
  Crabgrass, Large plant response rating: 70
[15]; [29]
  Crabgrass, Large plant response rating: 10
[16]; [28]
  Morningglory plant response rating: 70
[16]; [29]
  Morningglory plant response rating: 30

Reference: US20150105252A1, “SUBSTITUTED PYRAZOLES AS HERBICIDES” (E I DU PONT DE NEMOURS AND COMPANY, priority 2013, published 2015)
